Legend:
[1] = system: LPS-induced IFN-γ release in human whole blood; experiment: Inhibition of LPS-induced IFN-γ release in human whole blood; format: cell-based; conditions: 24 h
Description: Appropriate control wells were included (2 μL DMSO ± LPS). Subsequently, 1 mL of whole blood solution from each well was incubated at 37°C for 24 h in LPS-containing culture tubes, where final test compound concentrations were 0.0032, 0.016, 0.08, 0.4, 2, and 10 μM. Culture supernatant was harvested using the Seraplas® V11 valve filter (Sarstedt, Nümbrecht, Germany) and IFN-γ determined using validated methods with the V-PLEX assay (V-PLEX Proinflammatory Panel 1 Human Kit, Meso Scale Discovery, Rockville, MD, United States), as shown in Supplementary Table S1. […] IC50 values corrected for PPB were also determined, giving IC50,free values (using the same formula as for the TNF-α assay in rat whole blood).

[2] = humans ref Ferry et al., 1988; cited from earlier work
[3] = system: IL-1β–induced IL-6 release in A549 cells; experiment: Inhibition of IL-1β–induced IL-6 release in A549 cells; format: cell-based, human
Description: Cells from the human lung epithelial cell line A549 (CCL-185, ATCC) were seeded in 96-well plates at a density of […] in F12K Nutrient Mix (Gibco™, ThermoFisher Scientific, Waltham, MA, United States) with 10% fetal calf serum (FCS), and cultured for 24 h in standard conditions. […] After 30 min’ incubation, human IL-1β (1 ng/mL final concentration) was added at 50 µL/well, followed by a 20 h-incubation in standard conditions. Human IL-6 was measured in the collected supernatant using the human AlphaLISA® immunoassay kit (PerkinElmer; Supplementary Material).
Per the human AlphaLISA® (PerkinElmer) immunoassay kit instructions, the immuno-assay buffer was diluted 1:10 in water and the human IL-6 analyte standard was diluted in FCS-free F12K nutrient mix (30,000–10 pg/mL). Each standard dilution or sample (5 μL each) was added to the wells of a 96-well polystyrene compound plate, to which 20 µL of the test mix 1 (containing anti-IL-6 acceptor beads and biotinylated anti-IL-6 antibody diluted 1:200 in immuno-assay-buffer) was added to each well and incubated for 1 h at room temperature. Afterwards, donor beads were diluted 1:62.5 in immuno-assay-buffer and 25 µL were transferred to each well. After a 30-min incubation at room temperature, the plates were read using an EnVision Multilabel Reader® (PerkinElmer) equipped with the ALPHA option.

[4] = system: LPS-induced TNF-α release in rat whole blood; experiment: Inhibition of LPS-induced TNF-α release in rat whole blood; format: cell-based; conditions: 18 h
Description: Arterial blood was collected from male Sprague-Dawley rats (180–250 g; Janvier Labs, Le Genest-Saint-Isle, France) in heparin syringes. […] Plasma was collected via centrifugation and TNF-α measured using a TNFalpha Kit (PerkinElmer, Waltham, MA, United States), according to manufacturers’ instructions, and a microplate reader (EnVision Multilabel Reader®, PerkinElmer; Supplementary Material). The IC50 values for inhibition of TNF-α release were calculated by fitting concentration response curves to a four parameter nonlinear regression model using ActivityBase (XLfit® software; ID Business Solutions Ltd.). […] In addition, IC50,free values were determined by correcting the IC50 values for plasma protein binding (PPB); see the Supplementary Material for the calculation.
The immuno-assay-buffer provided in the kit was diluted 1:10 in water and the mouse TNF-α analyte standard was diluted in rat plasma (30,000–4 pg/mL). […] After a 30-min incubation at room temperature, the plates were read using an EnVision Multilabel Reader® (PerkinElmer) equipped with the ALPHA option using the AlphaScreen standard settings. […]

[5] = system: OPG release in human osteoblast cell line MG-63; experiment: Inhibition of OPG release in MG-63 osteoblast cells; format: cell-based; conditions: MG-63 cells, 24 h
Description: ([Humphrey et al., 2006]). […] After a 24-h incubation in standard conditions, supernatant was collected and OPG measured using the human osteoprotegerin/TNFRSF11B DuoSet® ELISA (R&D Systems, Minneapolis, MN, United States), according to the manufacturer’s instructions (Supplementary Material). A 3-parameter nonlinear regression was performed using GraphPad PRISM v7.03 software (Graphpad Software Inc.) to determine IC50 values.
All incubations in this assay were conducted at room temperature. Anti-OPG capture antibodies, diluted in Dulbecco's phosphate-buffered saline (DPBS), were transferred into a coated 96-well plate (100 µL/well). After overnight incubation, and triplicate washing (400 µL/well) with wash buffer (0.05% Tween 20 in DPBS, pH 7.2–7.4), 300 µL of Reagent Diluent (1% bovine serum albumin [BSA] in DPBS) was added, followed by a 1-h incubation, and thereafter three washing steps again. Then, 100 µL of supernatant, standard or reagent diluent were added per well for a 2-h incubation. After repeating three washing steps, 100 µL of detection antibody diluted in reagent diluent (including normal goat serum) were added to each well, followed by a 2-h incubation. After repeating three washing steps, 100 µL of Streptavidin conjugated to horseradish-peroxidase solution was added per well for a 20-min incubation. Finally, 50 µL/well of stop solution was added. After gently shaking of the plate to ensure thorough mixing, the optical density of each well was determined immediately using the Eon™ Microplate Spectrophotometer (Bio Tek Instruments) set at 450 nm.
Supplementary Figure S2. […] Error bars indicate standard error of the mean. […] Log c, log concentration.

[6] = target: T1, human progesterone receptor (PR) (Homo sapiens, UniProt P06401); experiment: Human PR radioligand binding (3H-progesterone, T47D cells); conditions: read-out: inhibition of 3H-progesterone binding; footnote: at 10 µM
T1 sequence (P06401 636-933 limits assumed): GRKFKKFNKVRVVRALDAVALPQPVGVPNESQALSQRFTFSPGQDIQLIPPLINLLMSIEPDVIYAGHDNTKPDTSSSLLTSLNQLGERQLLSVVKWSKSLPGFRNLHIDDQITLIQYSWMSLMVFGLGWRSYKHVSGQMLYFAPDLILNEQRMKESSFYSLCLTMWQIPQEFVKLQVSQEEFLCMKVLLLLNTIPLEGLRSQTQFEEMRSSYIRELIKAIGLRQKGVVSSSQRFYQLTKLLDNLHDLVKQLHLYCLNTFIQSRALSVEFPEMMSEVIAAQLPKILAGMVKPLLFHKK
Description: Scintillation counting of bound radioligand was conducted after 6 and 20 h of incubation (at 4°C), respectively. […] Scintillation counting of bound radioligand was conducted after 20 h of incubation at 4°C.
The same statistical methods were used for the MR binding assays, but using MathIQ™ software (ID Business Solutions Ltd., Woking, United Kingdom).
Percent inhibition of control specific binding was calculated as follows: […]
The half-maximal inhibitory concentration (IC50; i.e., the concentration causing a half-maximal inhibition of control specific binding) and Hill coefficients (nH) were determined by non-linear regression analysis of the competition curves generated with mean replicate values using the following Hill equation curve fitting: Y=D+ A-D1+ C/C50nH , where Y = specific binding, A = left asymptote of the curve, D = right asymptote of the curve, C = compound concentration, C50 = IC50, and nH = slope factor.
The inhibition constants (Ki) were calculated using the Cheng Prusoff equation:
where L = concentration of radioligand employed in the assay, and KD = affinity of the radioligand for the receptor (a Scatchard plot was used to determine the KD) (Cheng and Prusoff, 1973).

## C[C@]12C=CC(=O)C=C1CC[C@@H]1[C@@H]2[C@@H](O)C[C@@]2(C)[C@H]1CC[C@]2(O)C(=O)CO [Prednisolone]
[1]
  IC50: 13.4 ± 7.95 nM
  Inhibition of LPS-induced IFN-γ release: 99.3 ± 2.8%
[1]; listed as prednisolone
  Inhibition of LPS-induced IFN-γ release: 99%
[2]
  t½: ~2.5 h
[3]; 100% = 1 μM dexamethasone
  Inhibition of IL-1β–induced IL-6 release: 101 ± 2.7%
[3]; Homo sapiens, IL-1β 1 ng/mL, 20 h
  IC50: 0.86 ± 0.13 nM
[4]
  IC50: 8.1 ± 2.1 nM
  Inhibition of LPS-induced TNF-α release: 99 ± 3%
[5]; Homo sapiens
  IC50: 3.1 ± 4.3 nM
[5]
  Inhibition of OPG release (maximal level): 100 ± 0%
[5]; listed as prednisolone
  Inhibition of OPG release (maximal level): fully inhibiting OPG release
[6]
  inhibition at 10 µM: 12.1 to 30.7%
